{"source": "PubChem BioAssay AID330", "about": "(DTP/NCI, 2004)", "system": "P388 leukemia ip, CD2F1 mice, survival T/C", "test": "NCI In Vivo Anticancer Drug Screen. Data for tumor model P388 Leukemia (intraperitoneal) in CD2F1 (CDF1) mice", "conditions": "endpoint: median survival time, higher = longer survival", "how_it_was_run": "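Mice carrying the transplanted tumor received test compound or vehicle. Survival was recorded in each group, and the value is the treated-group measurement divided by that of the vehicle-treated control group.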", "note": "Several values for one entry are separate records, joined by “and”; a condition that tells them apart may be missing. Identical values can stand only once. Toxic doses and inconclusive results are not listed.", "data": [{"smiles": "ClC1(Cl)CC1[Se]c1ccccc1", "note": "(stereo not drawn)", "values": [{"measurement": "T/C", "setting": "dose: 50.0 mg/kg/injection, schedule: Q01DX009 (ip), vehicle: saline", "result": "100 % of control"}, {"measurement": "T/C", "setting": "dose: 100.0 mg/kg/injection, schedule: Q01DX009 (ip), vehicle: saline", "result": "102 % of control"}, {"measurement": "T/C", "setting": "dose: 200.0 mg/kg/injection, schedule: Q01DX009 (ip), vehicle: saline", "result": "99 % of control"}]}, {"smiles": "C[CH2][Sn]([CH2]C)([n]1c(C)nc2ccccc21)[n]1c(C)nc2ccccc21", "values": [{"measurement": "T/C", "setting": "dose: 1.56 mg/kg/injection, schedule: Q01DX005 (ip), vehicle: Klucel (hydroxypropylcellulose) (HPC)", "result": "110 % of control"}, {"measurement": "T/C", "setting": "dose: 3.12 mg/kg/injection, schedule: Q01DX005 (ip), vehicle: Klucel (hydroxypropylcellulose) (HPC)", "result": "122 % of control"}, {"measurement": "T/C", "setting": "dose: 6.25 mg/kg/injection, schedule: Q01DX005 (ip), vehicle: Klucel (hydroxypropylcellulose) (HPC)", "result": "122 % of control"}]}, {"smiles": "Cc1nn(C(=S)S)c(C)c1N=Nc1ccc(O)cc1", "values": [{"measurement": "T/C", "setting": "dose: 50.0 mg/kg/injection, schedule: Q01DX005 (ip), vehicle: saline with Tween-80", "result": "100 % of control"}, {"measurement": "T/C", "setting": "dose: 100.0 mg/kg/injection, schedule: Q01DX005 (ip), vehicle: saline with Tween-80", "result": "102 % of control"}, {"measurement": "T/C", "setting": "dose: 200.0 mg/kg/injection, schedule: Q01DX005 (ip), vehicle: saline with Tween-80", "result": "101 % of control"}]}, {"smiles": "COC12C=C(C(C)(C)C)C(CC1)C1C(=O)c3c(OC(=O)OCc4ccc([N+](=O)[O-])cc4)ccc(O)c3C(=O)C12", "note": "(stereo not drawn)", "values": [{"measurement": "T/C", "setting": "dose: 30.0 mg/kg/injection, schedule: Q01DX005 (ip), vehicle: saline with Tween-80", "result": "91 % of control"}, {"measurement": "T/C", "setting": "dose: 60.0 mg/kg/injection, schedule: Q01DX005 (ip), vehicle: saline with Tween-80", "result": "86 % of control and 94 % of control"}, {"measurement": "T/C", "setting": "dose: 120.0 mg/kg/injection, schedule: Q01DX005 (ip), vehicle: saline with Tween-80", "result": "91 % of control and 92 % of control"}, {"measurement": "T/C", "setting": "dose: 240.0 mg/kg/injection, schedule: Q01DX005 (ip), vehicle: saline with Tween-80", "result": "100 % of control"}]}, {"smiles": "CCCCONc1ccnc(=O)[nH]1", "values": [{"measurement": "T/C", "setting": "dose: 37.5 mg/kg/injection, schedule: Q01DX001 (ip), vehicle: saline", "result": "100 % of control"}, {"measurement": "T/C", "setting": "dose: 75.0 mg/kg/injection, schedule: Q01DX001 (ip), vehicle: saline", "result": "100 % of control"}, {"measurement": "T/C", "setting": "dose: 150.0 mg/kg/injection, schedule: Q01DX001 (ip), vehicle: saline", "result": "107 % of control"}]}, {"smiles": "Nc1nc(N)c2nc3c(nc2n1)CCCCCCCCCC3", "values": [{"measurement": "T/C", "setting": "dose: 12.5 mg/kg/injection, schedule: Q01DX009 (ip), vehicle: saline with Tween-80", "result": "92 % of control"}, {"measurement": "T/C", "setting": "dose: 25.0 mg/kg/injection, schedule: Q01DX009 (ip), vehicle: saline with Tween-80", "result": "92 % of control"}, {"measurement": "T/C", "setting": "dose: 50.0 mg/kg/injection, schedule: Q01DX009 (ip), vehicle: saline with Tween-80", "result": "89 % of control"}, {"measurement": "T/C", "setting": "dose: 100.0 mg/kg/injection, schedule: Q01DX009 (ip), vehicle: saline with Tween-80", "result": "90 % of control"}]}, {"smiles": "CC1CC(C)N(C)C(C)C1", "note": "(stereo not drawn)", "values": [{"measurement": "T/C", "setting": "dose: 15.0 mg/kg/injection, schedule: Q01DX005 (ip), vehicle: saline", "result": "103 % of control"}, {"measurement": "T/C", "setting": "dose: 30.0 mg/kg/injection, schedule: Q01DX005 (ip), vehicle: saline", "result": "99 % of control"}, {"measurement": "T/C", "setting": "dose: 60.0 mg/kg/injection, schedule: Q01DX005 (ip), vehicle: saline", "result": "104 % of control"}]}, {"smiles": "CC(=O)CC(c1ccc(Cl)cc1)C(C#N)c1ccccc1", "note": "(stereo not drawn)", "values": [{"measurement": "T/C", "setting": "dose: 50.0 mg/kg/injection, schedule: Q01DX009 (ip), vehicle: Klucel (hydroxypropylcellulose) (HPC)", "result": "89 % of control"}, {"measurement": "T/C", "setting": "dose: 100.0 mg/kg/injection, schedule: Q01DX009 (ip), vehicle: Klucel (hydroxypropylcellulose) (HPC)", "result": "91 % of control"}, {"measurement": "T/C", "setting": "dose: 200.0 mg/kg/injection, schedule: Q01DX009 (ip), vehicle: Klucel (hydroxypropylcellulose) (HPC)", "result": "86 % of control"}]}, {"smiles": "O=C1c2c(O)ccc(O)c2C(=O)c2c(NCCCO)ccc(NCCCO)c21", "values": [{"measurement": "T/C", "setting": "dose: 0.62 mg/kg/injection, schedule: Q01DX009 (ip), vehicle: acid diluted with saline", "result": "110 % of control"}, {"measurement": "T/C", "setting": "dose: 1.25 mg/kg/injection, schedule: Q01DX009 (ip), vehicle: acid diluted with saline", "result": "103 % of control"}, {"measurement": "T/C", "setting": "dose: 2.5 mg/kg/injection, schedule: Q01DX009 (ip), vehicle: acid diluted with saline", "result": "100 % of control"}, {"measurement": "T/C", "setting": "dose: 5.0 mg/kg/injection, schedule: Q01DX009 (ip), vehicle: acid diluted with saline", "result": "107 % of control"}, {"measurement": "T/C", "setting": "dose: 10.0 mg/kg/injection, schedule: Q01DX009 (ip), vehicle: acid diluted with saline", "result": "98 % of control"}, {"measurement": "T/C", "setting": "dose: 20.0 mg/kg/injection, schedule: Q01DX009 (ip), vehicle: acid diluted with saline", "result": "100 % of control"}, {"measurement": "T/C", "setting": "dose: 40.0 mg/kg/injection, schedule: Q01DX009 (ip), vehicle: acid diluted with saline", "result": "100 % of control"}, {"measurement": "T/C", "setting": "dose: 80.0 mg/kg/injection, schedule: Q01DX009 (ip), vehicle: acid diluted with saline", "result": "91 % of control"}]}, {"smiles": "CCC(C)C1C(=O)OC(C(Cl)(Cl)Cl)N1Cc1ccc(OC)cc1OC", "note": "(stereo not drawn)", "values": [{"measurement": "T/C", "setting": "dose: 100.0 mg/kg/injection, schedule: Q04DX003 (ip), vehicle: Klucel (hydroxypropylcellulose) (HPC)", "result": "109 % of control"}, {"measurement": "T/C", "setting": "dose: 200.0 mg/kg/injection, schedule: Q04DX003 (ip), vehicle: Klucel (hydroxypropylcellulose) (HPC)", "result": "107 % of control"}, {"measurement": "T/C", "setting": "dose: 400.0 mg/kg/injection, schedule: Q04DX003 (ip), vehicle: Klucel (hydroxypropylcellulose) (HPC)", "result": "104 % of control"}]}, {"smiles": "COc1cccc2c1C(=O)c1c(O)c3c(c(O)c1C2=O)C[C@@](O)(C(C)=O)C[C@@H]3OC1CC(N2CCCCC2)C(O)C(C)O1", "note": "(stereo partly drawn)", "values": [{"measurement": "T/C", "setting": "dose: 1.56 mg/kg/injection, schedule: Q04DX003 (ip), vehicle: water", "result": "111 % of control"}, {"measurement": "T/C", "setting": "dose: 6.25 mg/kg/injection, schedule: Q04DX003 (ip), vehicle: distilled water + Tween-80", "result": "191 % of control"}, {"measurement": "T/C", "setting": "dose: 6.25 mg/kg/injection, schedule: Q04DX003 (ip), vehicle: water", "result": "163 % of control"}, {"measurement": "T/C", "setting": "dose: 12.5 mg/kg/injection, schedule: Q04DX003 (ip), vehicle: distilled water + Tween-80", "result": "106 % of control"}, {"measurement": "T/C", "setting": "dose: 12.5 mg/kg/injection, schedule: Q04DX003 (ip), vehicle: water", "result": "111 % of control"}, {"measurement": "T/C", "setting": "dose: 25.0 mg/kg/injection, schedule: Q04DX003 (ip), vehicle: distilled water + Tween-80", "result": "99 % of control"}]}]}
